Laboratory results published in ChEMBL document CHEMBL1152289, “Antithyroid drug carbimazole and its analogues: synthesis and inhibition of peroxidase-catalyzed iodination of L-tyrosine” (J Med Chem, 2008).
pIC50: −log10 of the molar value.

Biological target: Lactoperoxidase (Homo sapiens, UniProt P22079)
Assay: Inhibition of lactoperoxidase-catalyzed iodination of L-tyrosine assessed as 3,5-diiodo-L-tyrosine formation by HPLC

Sequence of Lactoperoxidase (P22079 whole entry): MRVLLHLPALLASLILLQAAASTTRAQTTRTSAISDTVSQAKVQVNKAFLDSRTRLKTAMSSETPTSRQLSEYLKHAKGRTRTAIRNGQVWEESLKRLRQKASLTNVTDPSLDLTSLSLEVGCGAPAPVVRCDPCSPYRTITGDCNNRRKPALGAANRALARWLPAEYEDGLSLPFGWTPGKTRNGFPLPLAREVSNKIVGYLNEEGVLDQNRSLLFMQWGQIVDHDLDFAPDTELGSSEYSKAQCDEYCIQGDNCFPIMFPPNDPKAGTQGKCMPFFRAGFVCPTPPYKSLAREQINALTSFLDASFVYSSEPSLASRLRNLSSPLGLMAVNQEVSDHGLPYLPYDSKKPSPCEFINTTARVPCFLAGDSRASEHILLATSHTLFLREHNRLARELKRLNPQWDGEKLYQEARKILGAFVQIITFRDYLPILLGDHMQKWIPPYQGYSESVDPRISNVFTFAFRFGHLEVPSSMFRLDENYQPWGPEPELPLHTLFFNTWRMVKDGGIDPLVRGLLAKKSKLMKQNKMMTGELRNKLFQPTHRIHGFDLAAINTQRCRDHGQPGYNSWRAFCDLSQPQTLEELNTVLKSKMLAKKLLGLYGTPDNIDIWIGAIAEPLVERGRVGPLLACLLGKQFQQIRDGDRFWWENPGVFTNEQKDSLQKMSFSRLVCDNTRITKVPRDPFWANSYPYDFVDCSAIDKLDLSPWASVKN

SMILES	pIC50
CCn1ccn(C(=O)OC)c1=[Se]	4.60
CCOC(=O)n1ccn(CC)c1=[Se]	4.67
COC(=O)n1ccn(C)c1=S	4.97
CCOC(=O)n1ccn(C)c1=[Se]	5.00
CCOC(=O)n1ccn(C)c1=S [CARBIMAZOLE]	4.98
COC(=O)n1ccn(C)c1=[Se]	4.71

Results, then the molecule that gave them:

pIC50	SMILES
4.93	Cn1cc[nH]c1=S [METHIMAZOLE]
4.69	CCOC(=O)n1ccn(CC)c1=S
4.71	CCn1ccn(C(=O)OC)c1=S
